A word on the pIC50: it is the IC50 on a negative log10 scale, so that one unit is a factor of ten.

25 compounds from patent publication US9796668B2, “Natural product analogs including an anti-inflammatory cyanoenone pharmacore and methods of use” (REATA PHARMACEUTICALS, INC., priority 2008, dated 2017) can be followed below.

SMILES strings stand for the structures. pIC50: −log10 of the molar value. Where two headings read alike, the source gives them in different places.

Experiment [1] concerns IFNγ-induced NO production in RAW264.7 macrophages. Kind of experiment: Suppression of IFNγ-induced NO production (Griess reagent). It is filed as cell-based, mouse. The procedure:
(§1) FIGS. 1-16 and 20-24. Inhibition of NO Production. RAW264.7 macrophages were pre-treated with DMSO or drugs at various concentrations (μM) for 2 hours, then treated with IFNγ for 24 hours. NO concentration in media was determined using a Griess reagent system; cell viability was determined using the WST-1 reagent.
Compounds of the present disclosure have been tested for inhibition of NO production. Experimental details are provided in Example 1.
(§2) RAW264.7 macrophages were pre-treated with DMSO or drugs for 2 hours, then treated with recombinant mouse IFNγ (Sigma) for 24 hours. NO concentration in media was determined using the Griess reagent system (Promega). Cell viability was determined using WST-1 reagent (Roche).
(In general: The Griess reaction detects nitrite, a stable product of nitric oxide.)

For another experiment, the system named is RAW264.7 macrophages. Briefly: Cell viability (WST-1 reagent). It is filed as cell-based, mouse. Particulars: RAW264.7, 20 ng/ml IFNγ. Here is the method: as §1, §2
For orientation: Tetrazolium dyes change colour on reduction, which living cells bring about.

Setting [2] is: Mus musculus, RAW264.7, read-out: NO IC50.
The mark [3] stands for this setting: Mus musculus, RAW264.7, read-out: IC50 in the NO assay.
The mark [4] stands for this setting: Mus musculus, RAW264.7, 20 ng/ml IFNγ, read-out: NO IC50.
The mark [5] stands for this setting: Mus musculus, RAW264.7, parent compounds, read-out: IC50 in the NO assay.

For the compound `C=CCC1(CC=C)C(=O)C(C#N)(C#N)C[C@@]2(C)C1=CC[C@@H]1[C@@H]2CC[C@]2(C)C(=O)CC[C@@H]12` [Compound 63290], the pIC50 in experiment [1] (setting [2]) was ~5.52; in the experiment on RAW264.7 macrophages (Mus musculus) it was ~5.00.
The matching figures for `C=CCC1(CC=C)C(=O)C(C#N)(C#N)C[C@@]2(C)C1=CC[C@@H]1[C@@H]2CC[C@@]2(C)[C@H]1CCC21OCCO1` [Compound 63291]: ~5.82 and < 5.00.
For `C[C@]12C=C(C#N)C(=O)C3(CC=CC3)C1=CC[C@@H]1[C@@H]2CC[C@@]2(C)[C@H]1CCC21OCCO1` [Compound 63304] the same measures were ~7.52 and ~6.40.
For `C[C@]12C=C(C#N)C(=O)C3(CC=CC3)C1=CC[C@@H]1[C@@H]2CC[C@]2(C)C(=O)CC[C@@H]12` [Compound 63311] the same measures were ~7.70 and ~6.12.
With `COCO[C@H]1C[C@H]2[C@@H]([C@H](OCOC)C[C@@H]3CC(=O)C(C#N)=C[C@@]32C)[C@@H]2CC[C@H]([C@H](C)CCC(=O)OC)[C@@]12C` [Compound 63312], the pIC50 in experiment [1] (setting [2]) is ~5.46; with RAW264.7 macrophages (Mus musculus), < 6.70.
Regarding `CCCC1(CCC)C(=O)C(C#N)=C[C@@]2(C)C1=CC[C@@H]1[C@@H]2CC[C@]2(C)C(=O)CC[C@@H]12` [Compound 63313], the values for the pIC50 (in experiment [1] (setting [2]); with RAW264.7 macrophages (Mus musculus)) were ~6.35 and ~5.60, respectively.
For `COC(=O)CC[C@@H](C)[C@H]1CC[C@H]2[C@@H]3[C@H](O)C[C@@H]4CC(=O)C(C#N)=C[C@]4(C)[C@H]3C[C@H](O)[C@]12C` [Compound 63314] the same measures were ~5.10 and < 6.70.
Regarding `C[C@]12C=C(C#N)C(=O)C3(CCCC3)C1=CC[C@@H]1[C@@H]2CC[C@@]2(C)[C@H]1CCC21OCCO1` [Compound 63317], the pIC50 in experiment [1] (setting [2]) was ~7.15.
On the same count and under the same terms, the result for `C[C@]12C=C(C#N)C(=O)C3(CCCC3)C1=CC[C@@H]1[C@@H]2CC[C@]2(C)C(=O)CC[C@@H]12` [Compound 63318] reads ~7.30; that for `C[C@]12CC[C@H]3[C@@H](CC=C4C5(CCCC5)C(=O)C(C#N)=C[C@@]43C)[C@@H]1CC[C@@H]2O` [Compound 63329], ~7.22.
In the case of `COc1cc(C=CC2(C(C)(C)C(=O)/C=C/[C@@]3(C)C=C(C#N)C(=O)C(C)(C)C3)OCCO2)ccc1O[Si](C)(C)C(C)(C)C` [Compound C0008, (S)-3-((E)-4-(2-(4-(tert-butyldimethylsilyloxy)-3-methoxystyryl)-1,3-dioxolan-2-yl)-4-methyl-3-oxopent-1-enyl)-3,5,5-trimethyl-6-oxocyclohex-1-enecarbonitrile], the negative-log IC50 (pIC50) in experiment [1] (setting [2]) was 6.47; in the experiment with RAW264.7 macrophages (Mus musculus) it was 5.30.
Take `COc1cc(/C=C/C(=O)C(C)(C)C(=O)/C=C/[C@@]2(C)C=C(C#N)C(=O)C(C)(C)C2)ccc1O` [Compound C0009, (S)-3-((1E,6E)-7-(4-hydroxy-3-methoxyphenyl)-4,4-dimethyl-3,5-dioxohepta-1,6-dienyl)-3,5,5-trimethyl-6-oxocyclohex-1-enecarbonitrile]: the negative-log IC50 (pIC50) in experiment [1] (setting [3]) is 7.00; in experiment [1] (setting [4]), 7.00; in the experiment on RAW264.7 macrophages (Mus musculus), 6.00.
Regarding `COc1cc(C=CC2(C(C)(C)C(=O)/C=C/[C@@]3(C)C=C(C#N)C(=O)C(C)(C)C3)OCCO2)ccc1O` [Compound C0010, (S)-3-((E)-4-(2-(4-hydroxy-3-methoxystyryl)-1,3-dioxolan-2-yl)-4-methyl-3-oxopent-1-enyl)-3,5,5-trimethyl-6-oxocyclohex-1-enecarbonitrile], the negative logarithm of the IC50 (pIC50) in experiment [1] (setting [4]) was 6.15; in the experiment with RAW264.7 macrophages (Mus musculus), 5.30.
With `COCOC1CCC2C3CCC4=C(C#N)C(=O)CC[C@@]4(C)C3CC[C@@]12C` (stereo partly drawn) [Compound D0014, (10S,13R)-17-(methoxymethoxy)-10,13-dimethyl-3-oxo-2,3,6,7,8,9,10,11,12,13,14,15,16,17-tetradecahydro-1H-cyclopenta[a]phenanthrene-4-carbonitrile], the pIC50 is 5.62 in experiment [1] (setting [2]) and < 5.00 in the experiment with RAW264.7 macrophages (Mus musculus).
For the compound `C[C@@]12CCC3C(CCC4=C(C#N)C(=O)CC[C@]43C)C1CCC2O` (stereo partly drawn) [Compound D0015, (10S,13R)-17-hydroxy-10,13-dimethyl-3-oxo-2,3,6,7,8,9,10,11,12,13,14,15,16,17-tetradecahydro-1H-cyclopenta[a]phenanthrene-4-carbonitrile], the pIC50 was 5.54 in experiment [1] (setting [4]) and < 5.00 in the experiment with RAW264.7 macrophages (Mus musculus).
Consider `CC1(C)C(=O)C(C#N)=C[C@]2(C)C3CC[C@]4(C)C(O[Si](C)(C)C)CCC4C3CCC12` (stereo partly drawn) [Compound D0016, (10S,13S)-4,4,10,13-tetramethyl-3-oxo-17-(trimethylsilyloxy)-4,5,6,7,8,9,10,11,12,13,14,15,16,17-tetradecahydro-3H-cyclopenta[a]phenanthrene-2-carbonitrile], for which the pIC50 in experiment [1] (setting [4]) was 6.82; in the experiment on RAW264.7 macrophages (Mus musculus) it was 5.00.
The matching figures for `CC1(C)C(=O)C(C#N)=C[C@]2(C)C3CC[C@@]4(C)C(CC[C@@H]4O)C3CCC12` (stereo partly drawn) [Compound D0017, (10S,13S,17S)-17-hydroxy-4,4,10,13-tetramethyl-3-oxo-4,5,6,7,8,9,10,11,12,13,14,15,16,17-tetradecahydro-3H-cyclopenta[a]phenanthrene-2-carbonitrile]: 6.85 and 5.00.
Regarding `CC1(C)C(=O)C(C#N)=C[C@]2(C)C3CC[C@]4(C)C(=O)CCC4C3CCC12` (stereo partly drawn) [Compound D0018, (10S,13S)-4,4,10,13-tetramethyl-3,17-dioxo-4,5,6,7,8,9,10,11,12,13,14,15,16,17-tetradecahydro-3H-cyclopenta[a]phenanthrene-2-carbonitrile], the pIC50 in experiment [1] (setting [3]) is 6.89; in experiment [1] (setting [4]), 6.89; in the experiment with RAW264.7 macrophages (Mus musculus) it was < 5.00.
As for `CC1CC[C@@]2(OC1)OC1CC3C4CCC5CC(=O)C(C#N)=C[C@]5(C)C4=CC(=O)[C@]3(C)C1[C@@H]2C` (stereo partly drawn) [Compound H0001], the negative-log IC50 (pIC50) in experiment [1] (setting [2]) is 6.82; with RAW264.7 macrophages (Mus musculus), 5.60.
Turning to `C[C@]1(/C=C/c2ccc(O)cc2)C=C(C#N)C(=O)CC1` [Compound R00141, (S,E)-3-(4-hydroxystyryl)-3-methyl-6-oxocyclohex-1-enecarbonitrile], the pIC50 is 5.52 in experiment [1] (setting [4]) and < 5.00 in the experiment on RAW264.7 macrophages (Mus musculus).
For `CC1(C)C[C@@](C)(/C=C/c2ccc(O)cc2)C=C(C#N)C1=O` [Compound R00142, (S,E)-3-(4-hydroxystyryl)-3,5,5-trimethyl-6-oxocyclohex-1-enecarbonitrile] the same measures were 5.92 and < 5.00.
With `COc1cc(/C=C/C(=O)CC(=O)/C=C/c2ccc(O)c(OC)c2)ccc1O` [Curcumin, curcumin, reference compound], the pIC50 in experiment [1] (setting [5]) was 5.82; in experiment [1] (setting [4]), 5.87; in the experiment with RAW264.7 macrophages (Mus musculus), 5.40.
Take `C[C@]12CC[C@H](O)CC1=CC[C@@H]1[C@@H]2CC[C@]2(C)C(=O)CC[C@@H]12` [DHEA, dehydroandrosterone, reference compound]: the pIC50 (in experiment [1] (setting [5]); in experiment [1] (setting [4]); in the experiment with RAW264.7 macrophages (Mus musculus)) was < 5.00 each time.
Turning to `C[C@@H]1CC[C@@]2(OC1)O[C@H]1C[C@H]3[C@@H]4CC[C@H]5C[C@@H](O)CC[C@]5(C)[C@H]4CC(=O)[C@]3(C)[C@H]1[C@@H]2C` [Hecogenin, hecogenin, reference compound], the pIC50 in experiment [1] (RAW264.7, 20 ng/ml IFNγ, read-out: NO IC50) is < 5.00; with RAW264.7 macrophages, < 5.00.
Consider `Oc1ccc(C=Cc2cc(O)cc(O)c2)cc1` [Resveratrol, resveratrol, reference compound], for which the negative logarithm of the IC50 (pIC50) (in experiment [1] (setting [4]); in the experiment on RAW264.7 macrophages (Mus musculus)) was < 5.00 each time.
